We go through 15 compounds from ChEMBL document CHEMBL1201862, “PubChem BioAssay data set” (2004).

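Step 1: Grow cells in 96-well plates. Step 2: Expose to compound for 48 hours at 5 concentrations. Step 3: Interpolate endpoints linearly; if unreached, use highest concentration. GI50 = concentration required for 50% inhibition of growth.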 Active and inactive are the calls of the source. Rule as the data show it: active = GI50 up to about 1.1 µM and inactive = higher.

Among the test systems are DLD-1; DMS-273; HCT-15; HOP-62; HT-29; LXFL 529; NCI-H23; OVCAR-3; OVCAR-5; OVCAR-8; RXF 393; SK-MEL-5; SN12C; TK-10; M19-MEL.
Experiment in all cases: DTP human tumour cell line panel, 48 h

As to `NC(=O)OCC(COc1ccc(Cl)cc1)OC(=O)c1cc([N+](=O)[O-])cc([N+](=O)[O-])c1` (stereo not given), the GI50 is 55.2 µM (inactive) in the assay with DLD-1; > 100 µM (inactive) with DMS-273; 33.5 µM with HCT-15; > 100 µM (inactive) in the assay on HOP-62; > 100 µM (inactive) in the assay on HT-29; > 100 µM (inactive) in the assay with LXFL 529. For the same compound, the GI50 in the assay on NCI-H23, with OVCAR-3, with OVCAR-5, in the assay with OVCAR-8, in the assay with RXF 393 and in the assay on SK-MEL-5 was > 100 µM (inactive) in each case. In addition, the GI50 in the assay with SN12C and in the assay with TK-10 was > 100 µM (inactive) throughout.

`CC1CC(c2ccccc2)=Nc2ccccc2S1` (stereo not given): the GI50 in the assay with DLD-1 was > 100 µM (inactive); in the assay with DMS-273, > 100 µM (inactive); with HCT-15, above 100 µM; in the assay on HOP-62, > 100 µM (inactive); in the assay with HT-29 it was > 100 µM (inactive); with LXFL 529 it was > 100 µM (inactive). Further, the GI50 in the assay on M19-MEL is 97.3 µM (inactive); in the assay with NCI-H23 it was > 100 µM (inactive); in the assay on OVCAR-5, > 100 µM (inactive); in the assay with OVCAR-8, > 100 µM (inactive); in the assay with RXF 393 it was > 100 µM (inactive); in the assay with SK-MEL-5 it was > 100 µM (inactive). The GI50 in the assay on SN12C and in the assay on TK-10 was > 100 µM (inactive) in each case.

On to `COc1ccc(NC(=O)C(=O)NNC(=O)c2sc(NNC(C)=O)nc2C)c([N+](=O)[O-])c1`, for which the GI50 with DMS-273 is > 100 µM (inactive); with HCT-15, 91.6 µM; in the assay with HOP-62 it was > 100 µM (inactive); in the assay with HT-29, > 100 µM (inactive); with LXFL 529, 34.8 µM (inactive); in the assay on M19-MEL, > 100 µM (inactive). The GI50 in the assay on NCI-H23 is > 100 µM (inactive); with OVCAR-3 it was 33.5 µM (inactive); in the assay on OVCAR-5, > 100 µM (inactive); in the assay on OVCAR-8, > 100 µM (inactive); in the assay on SK-MEL-5, > 100 µM (inactive); in the assay on SN12C it was > 100 µM (inactive). For the same compound, the GI50 in the assay on TK-10 was > 100 µM (inactive).

On to `CCOC(=O)C1(C#N)C(c2ccccc2)CC(O)(c2ccc(OC)cc2)C(C(=O)c2ccc(OC)cc2)C1c1ccccc1` (stereo not given), for which the GI50 with DLD-1 was > 100 µM (inactive); in the assay with DMS-273, > 100 µM (inactive); in the assay with HCT-15, above 100 µM; with HOP-62 it was > 100 µM (inactive); in the assay with HT-29, > 100 µM (inactive); in the assay with LXFL 529, > 100 µM (inactive). Also, the GI50 with M19-MEL, in the assay with NCI-H23, in the assay with OVCAR-3, in the assay with OVCAR-5, in the assay with OVCAR-8 and in the assay with RXF 393 was > 100 µM (inactive) each time. Moreover, the GI50 in the assay with SK-MEL-5, in the assay with SN12C and in the assay on TK-10 was > 100 µM (inactive) throughout.

With `Nc1ncnc2c1ncn2C1C(O)C=C(CO)C1O` (stereo not given), the GI50 is > 625 µM (inactive) with DLD-1; > 625 µM (inactive) in the assay on DMS-273; above 625 µM with HCT-15; > 625 µM (inactive) with HOP-62; > 625 µM (inactive) in the assay on HT-29; > 625 µM (inactive) in the assay with M19-MEL. For the same compound, the GI50 with OVCAR-3, with OVCAR-8, with SK-MEL-5 and in the assay with SN12C was > 625 µM (inactive) in each case.

Regarding `COc1cc(C2c3cc4c(cc3[C@@H](Nc3cccc(CO)c3)C3COC(=O)[C@H]23)OCO4)cc(OC)c1O` (stereo not given in full), the GI50 with DLD-1 is 1.43 µM (inactive); in the assay on DMS-273 it was 0.153 µM (active); in the assay on HCT-15 it was 0.875 µM; in the assay with HOP-62, 0.156 µM (active); with HT-29, 0.984 µM (active); in the assay on M19-MEL, 0.871 µM (active). The GI50 in the assay on NCI-H23 is 0.375 µM (active); in the assay with OVCAR-3, 1.32 µM (inactive); in the assay with OVCAR-5 it was 2.04 µM (inactive); in the assay on OVCAR-8, 1.33 µM (inactive); with RXF 393, 1.27 µM (inactive); in the assay with SK-MEL-5, 0.56 µM (active). Further, in the assay on SN12C, the GI50 is 0.558 µM (active).

As to `NCC(Cl)C(O)c1c[nH]c(N)n1` (stereo not given), the GI50 in the assay on DLD-1 is 1.84 µM (inactive); in the assay on DMS-273, 2.05 µM (inactive); with HCT-15, 3.48 µM; with HOP-62, 0.371 µM (active); in the assay on HT-29 it was 0.454 µM (active); in the assay with M19-MEL, 2.52 µM (inactive). For the same compound, the GI50 was 1.49 µM (inactive) in the assay with NCI-H23; 2.03 µM (inactive) with OVCAR-3; 2.01 µM (inactive) in the assay on OVCAR-5; 0.546 µM (active) in the assay with OVCAR-8; 1.19 µM (inactive) with RXF 393; 7.33 µM (inactive) in the assay with SK-MEL-5. In addition, the GI50 in the assay with SN12C is 2.12 µM (inactive).

As for `O=C(Nc1ccc(Cl)c(Cl)c1)C(=O)C(C(=O)c1ccccc1F)C1OC(=O)c2ccccc21` (stereo not given), the GI50 in the assay with DLD-1 is 26.4 µM (inactive); in the assay on DMS-273, 13.2 µM (inactive); with HCT-15 it was 13.7 µM; with HOP-62, 23.4 µM (inactive); in the assay with HT-29, 34.4 µM (inactive); in the assay on LXFL 529, 17.6 µM (inactive). For the same compound, the GI50 in the assay with M19-MEL is 14.6 µM (inactive); in the assay with NCI-H23 it was 28.6 µM (inactive); with OVCAR-5, 49.1 µM (inactive); with OVCAR-8 it was 15.2 µM (inactive); in the assay with RXF 393, 20.7 µM (inactive); in the assay with SK-MEL-5, 15.9 µM (inactive). Moreover, the GI50 is 19.2 µM (inactive) in the assay with SN12C and 38.8 µM (inactive) in the assay with TK-10.

With `C=C(C)C1Cc2c(cc(O)c3c(=O)c4ccccc4n(C)c23)O1` (stereo not given), the GI50 was 27.1 µM (inactive) with DLD-1; 31.3 µM (inactive) in the assay with DMS-273; above 100 µM in the assay on HCT-15; 14.2 µM (inactive) with HOP-62; > 100 µM (inactive) with HT-29; 34 µM (inactive) with LXFL 529. Further, the GI50 with NCI-H23 was 32.2 µM (inactive); with OVCAR-5, > 100 µM (inactive); in the assay on RXF 393 it was 15.6 µM (inactive); in the assay on SK-MEL-5, 27.7 µM (inactive); with SN12C, 43.1 µM (inactive); in the assay on TK-10, 17.5 µM (inactive).

For the compound `CCN(CC)CCO[Si](OCCN(CC)CC)(OCCN(CC)CC)OCCN(CC)CC`, the GI50 in the assay with DLD-1 was > 100 µM (inactive); in the assay on DMS-273 it was > 100 µM (inactive); in the assay with HCT-15 it was above 100 µM; in the assay on HT-29, > 100 µM (inactive); with M19-MEL it was > 100 µM (inactive); with NCI-H23 it was > 100 µM (inactive). Moreover, the GI50 with OVCAR-3, in the assay on OVCAR-5, in the assay with OVCAR-8, with RXF 393, in the assay with SK-MEL-5 and in the assay on SN12C was > 100 µM (inactive) each time. Further, the GI50 with TK-10 is > 100 µM (inactive).

On to `COc1cc(C)c(CC/C(C)=C/Cc2cc(O)ccc2O)c(C)c1C` [PANICEIN A HYDROQUINONE], for which the GI50 with DLD-1 was > 25 µM (inactive); with DMS-273 it was > 25 µM (inactive); with HCT-15, above 25 µM; in the assay on HT-29, > 25 µM (inactive); in the assay on LXFL 529, > 25 µM (inactive); in the assay with M19-MEL, > 25 µM (inactive). In addition, the GI50 in the assay on NCI-H23, with OVCAR-3, in the assay on OVCAR-8, in the assay on RXF 393, with SK-MEL-5 and with SN12C was > 25 µM (inactive) in each case. Further, in the assay on TK-10, the GI50 is > 25 µM (inactive).

Turning to `S=C=NCCc1ccccc1` [PHENETHYLISOTHIOCYANATE], the 50% growth inhibitory concentration (GI50) is 0.0596 µM (active) in the assay on DLD-1; 0.255 µM (active) with DMS-273; 0.228 µM with HCT-15; 0.371 µM (active) with HOP-62; 0.219 µM (active) in the assay on HT-29; 0.212 µM (active) with LXFL 529. Moreover, the GI50 with M19-MEL was 0.753 µM (active); with NCI-H23 it was 0.453 µM (active); in the assay on OVCAR-3 it was 0.612 µM (active); in the assay with OVCAR-5, 1.55 µM (inactive); in the assay with OVCAR-8, 1.33 µM (inactive); with RXF 393, 0.443 µM (active). For the same compound, the GI50 in the assay on SK-MEL-5 was 0.325 µM (active); in the assay with SN12C, 0.319 µM (active); in the assay with TK-10, 0.813 µM (active).

For `C=CCNC(=O)N(CCC)CCCC(NC(C)=O)C(=O)NCc1ccccc1` (stereo not given), the GI50 was > 100 µM (inactive) in the assay on DMS-273; above 100 µM in the assay on HCT-15; > 100 µM (inactive) in the assay on HOP-62; > 100 µM (inactive) in the assay on HT-29; > 100 µM (inactive) in the assay with LXFL 529; > 100 µM (inactive) in the assay on M19-MEL. Moreover, the GI50 in the assay with NCI-H23, with OVCAR-3, in the assay on OVCAR-5, in the assay on OVCAR-8, in the assay with RXF 393 and in the assay with SK-MEL-5 was > 100 µM (inactive) each time. The GI50 in the assay with SN12C and in the assay with TK-10 was > 100 µM (inactive) in each case.

As to `COc1cc(C(C)c2cc3c(cc2OCCOCCOc2cc4c(cc2C(C)c2cc(OC)c(OC)c(OC)c2)OCO4)OCO3)cc(OC)c1OC` (stereo not given), the GI50 with DLD-1 is > 10 µM (inactive); with DMS-273, > 10 µM (inactive); with HCT-15 it was above 10 µM; with HOP-62, > 10 µM (inactive); with HT-29, > 10 µM (inactive); in the assay with LXFL 529 it was > 10 µM (inactive). In addition, the GI50 in the assay on M19-MEL, with NCI-H23, in the assay with OVCAR-3, in the assay on OVCAR-5, in the assay on OVCAR-8 and in the assay with RXF 393 was > 10 µM (inactive) in each case. Further, the GI50 was 89.1 µM (inactive) in the assay with SK-MEL-5, > 10 µM (inactive) in the assay on SN12C and > 10 µM (inactive) in the assay on TK-10.

Regarding `CCOC(=O)Cc1cc(OC)c(OC)cc1/C(Cl)=C(\CO)c1ccc(OC)c(OC)c1`, the GI50 in the assay on DLD-1 was > 100 µM (inactive); in the assay with DMS-273, > 100 µM (inactive); in the assay with HCT-15 it was above 100 µM; in the assay with HT-29, > 100 µM (inactive); in the assay with M19-MEL it was > 100 µM (inactive); in the assay on NCI-H23, 97.7 µM (inactive). Further, the GI50 in the assay on OVCAR-3 is 57.7 µM (inactive); in the assay with OVCAR-8, > 100 µM (inactive); in the assay on RXF 393, 37.9 µM (inactive); in the assay with SK-MEL-5, 30.7 µM (inactive); in the assay with SN12C, > 100 µM (inactive); in the assay with TK-10, > 100 µM (inactive).
